In patent US20210017174A1, “IDENTIFICATION AND USE OF ERK5 INHIBITOR” (Bayer Aktiengesellschaft, priority 2018, published 2021):

Test system: SN12C-MEF2-luc (clone #37) reporter cell line
Experiment: Luciferase reporter assay in SN12C-MEF2-luc cells (EGF-stimulated, MEF2-responsive luciferase);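 also: serially diluted compounds at 37 °C, EGF with DMSO as maximum signal and EGF with a 10 µM reference inhibitor as minimum (full inhibition)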
Type: cell-based
Conditions: Homo sapiens, 16 h compound incubation, then EGF 100 ng/ml for 2 h, ONE-Glo luminescence

Question: `COc1cc2ncnc(C3CCN(C(=O)c4ccc(OC(F)(F)F)cc4F)CC3)c2cc1OC` [Example 2, [4-(6,7-Dimethoxyquinazolin-4-yl)piperidin-1-yl][2-fluoro-4-(trifluoromethoxy)phenyl]methanone] was tested. Which IC50 did it give?
Answer: The IC50 was 935 nM.

Question: Which IC50 does the source give for `COc1cc2ncnc(C3CCN(C(=O)c4ccc(COC(F)(F)F)cc4)CC3)c2cc1OC` [Example 5, [4-(6,7-Dimethoxyquinazolin-4-yl)piperidin-1-yl]{4-[(trifluoromethoxy)methyl]phenyl}methanone] here?
Answer: Its IC50 is 11300 nM.

Question: With `COc1cc2ncnc(C3CCN(C(=O)c4ccc(SC(F)(F)F)cc4)CC3)c2cc1OC` [Example 16, [4-(6,7-Dimethoxyquinazolin-4-yl)piperidin-1-yl]{4-[(trifluoromethyl)sulfanyl]-phenyl}methanone] as the compound, how does the IC50 read?
Answer: Its IC50 is 1720 nM.

Question: For `CCCCOc1ccc(C(=O)N2CCC(c3ncnc4cc(OC)c(OC)cc34)CC2)cc1` [Example 17, (4-Butoxyphenyl)[4-(6,7-dimethoxyquinazolin-4-yl)piperidin-1-yl]methanone], which IC50 is on record?
Answer: The IC50 was 13100 nM.

Question: For `COc1cc2ncnc(C3CCN(C(=O)c4ccc(OC(F)(F)F)c(F)c4)CC3)c2cc1OC` [Example 22, [4-(6,7-Dimethoxyquinazolin-4-yl)piperidin-1-yl][3-fluoro-4-(trifluoromethoxy)phenyl]methanone], which IC50 is on record?
Answer: Its IC50 is 1230 nM.

Question: `COc1cc2ncnc(C3CCN(C(=O)c4ccc(OC(C)(C)C)cc4)CC3)c2cc1OC` [Example 25, (4-Tert-butoxyphenyl)[4-(6,7-dimethoxyquinazolin-4-yl)piperidin-1-yl]methanone] was tested. Which IC50 did it give?
Answer: Its IC50 is 6830 nM.

Question: For `C=CCOc1ccc(C(=O)N2CCC(c3ncnc4cc(OC)c(OC)cc34)CC2)cc1` [Example 27, [4-(6,7-Dimethoxyquinazolin-4-yl)piperidin-1-yl][4-(prop-2-en-1-yloxy)phenyl]-methanone], which IC50 is on record?
Answer: The IC50 was 4910 nM.

Question: For `CN1CCN(c2cnc3c(C4CCN(C(=O)c5ccc(OC(F)(F)F)cc5N)CC4)ncnc3c2)CC1` [Example 81, [2-Amino-4-(trifluoromethoxy)phenyl]{4-[7-(4-methylpiperazin-1-yl)pyrido[3,2-d]pyrimidin-4-yl]piperidin-1-yl}methanone], which IC50 is on record?
Answer: The IC50 was 115 nM.

Target: T1, ERK5 (Homo sapiens, UniProt Q13164)
T1 construct: host or cells: E. coli
T1 sequence (Q13164 1-398): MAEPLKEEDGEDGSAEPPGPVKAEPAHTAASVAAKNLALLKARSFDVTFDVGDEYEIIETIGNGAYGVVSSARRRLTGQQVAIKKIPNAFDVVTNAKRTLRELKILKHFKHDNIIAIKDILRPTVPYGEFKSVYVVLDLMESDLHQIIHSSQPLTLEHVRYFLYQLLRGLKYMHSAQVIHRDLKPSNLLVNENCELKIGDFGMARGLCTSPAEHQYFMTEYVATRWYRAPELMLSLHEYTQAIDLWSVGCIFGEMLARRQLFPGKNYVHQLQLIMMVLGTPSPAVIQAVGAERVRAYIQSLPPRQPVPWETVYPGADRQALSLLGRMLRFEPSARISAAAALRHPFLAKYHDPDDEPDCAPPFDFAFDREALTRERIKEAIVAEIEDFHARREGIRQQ
Experiment: TR-FRET-based Erk5 activity inhibition assay (biochemical assay ERK5)
Conditions: @ 20 μM; read-out: inhibition in biochemical ERK5 assay at a single concentration

Question: How did the inhibition at 20 µM turn out when `COc1cc2ncnc(C3CCN(C(=O)c4ccccc4OC(F)(F)F)CC3)c2cc1OC` [Example 28, [4-(6,7-Dimethoxyquinazolin-4-yl)piperidin-1-yl][2-(trifluoromethoxy)phenyl]-methanone] was run?
Answer: Its inhibition at 20 µM is 16%.

Question: How did the inhibition at 20 µM turn out when `O=C(O)c1ccc2c(C3CCN(C(=O)c4ccc(OC(F)(F)F)cc4)CC3)ncnc2c1` [Example 32, 4-{1-[4-(Trifluoromethoxy)benzoyl]piperidin-4-yl}quinazoline-7-carboxylic Acid] was run?
Answer: The inhibition at 20 µM was 44.2%.

Same assay, conditions: TR-FRET, 250 μM ATP, 1 μM substrate peptide, 60 min at 22° C.; read-out: IC50 value biochemiocal ERK5 asssay

Question: For `COc1cc2ncnc(C3CCN(C(=O)c4ccc(OC(F)(F)F)cc4F)CC3)c2cc1OC` [Example 2, [4-(6,7-Dimethoxyquinazolin-4-yl)piperidin-1-yl][2-fluoro-4-(trifluoromethoxy)phenyl]methanone], which IC50 is on record?
Answer: Its IC50 is 93.1 nM.

Question: Which IC50 does the source give for `COc1cc2ncnc(C3CCN(C(=O)c4ccc(Cl)cc4)CC3)c2cc1OC` [Example 4, 4-[1-(4-Chlorobenzoyl)piperidin-4-yl]-6,7-dimethoxyquinazoline] here?
Answer: The IC50 was 770 nM.

Question: For `COc1cc2ncnc(C3CCN(C(=O)c4ccc(COC(F)(F)F)cc4)CC3)c2cc1OC` [Example 5, [4-(6,7-Dimethoxyquinazolin-4-yl)piperidin-1-yl]{4-[(trifluoromethoxy)methyl]phenyl}methanone], which IC50 is on record?
Answer: Its IC50 is 1140 nM.

Question: How did the IC50 turn out when `COc1cc2ncnc(C3CCN(C(=O)c4ccccc4)CC3)c2cc1OC` [Example 9, [4-(6,7-Dimethoxyquinazolin-4-yl)piperidin-1-yl](phenyl)methanone] was run?
Answer: The IC50 was 6170 nM.

Question: `COc1cc2ncnc(C3CCN(C(=O)c4ccc(Br)cc4)CC3)c2cc1OC` [Example 12, (4-Bromophenyl)[4-(6,7-dimethoxyquinazolin-4-yl)piperidin-1-yl]methanone] was tested. Which IC50 did it give?
Answer: The IC50 was 190 nM.

Question: How did the IC50 turn out when `COc1cc2ncnc(C3CCN(C(=O)c4ccc(SC(F)(F)F)cc4)CC3)c2cc1OC` [Example 16, [4-(6,7-Dimethoxyquinazolin-4-yl)piperidin-1-yl]{4-[(trifluoromethyl)sulfanyl]-phenyl}methanone] was run?
Answer: Its IC50 is 159 nM.

Question: For `CCCCOc1ccc(C(=O)N2CCC(c3ncnc4cc(OC)c(OC)cc34)CC2)cc1` [Example 17, (4-Butoxyphenyl)[4-(6,7-dimethoxyquinazolin-4-yl)piperidin-1-yl]methanone], which IC50 is on record?
Answer: The IC50 was 111 nM.

Question: With `COc1cc2ncnc(C3CCN(C(=O)c4ccc(C(C)C)cc4)CC3)c2cc1OC` [Example 18, [4-(6,7-Dimethoxyquinazolin-4-yl)piperidin-1-yl][4-(propan-2-yl)phenyl]-methanone] as the compound, how does the IC50 read?
Answer: The IC50 was 358 nM.

Question: How did the IC50 turn out when `COc1cc2ncnc(C3CCN(C(=O)c4ccc(OC(F)F)cc4)CC3)c2cc1OC` [Example 19, [4-(Difluoromethoxy)phenyl][4-(6,7-dimethoxyquinazolin-4-yl)piperidin-1-yl]methanone] was run?
Answer: The IC50 was 165 nM.

Question: Which IC50 does the source give for `CCCc1ccc(C(=O)N2CCC(c3ncnc4cc(OC)c(OC)cc34)CC2)cc1` [Example 20, [4-(6,7-Dimethoxyquinazolin-4-yl)piperidin-1-yl](4-propylphenyl)methanone] here?
Answer: The IC50 was 281 nM.

Question: For `COc1cc2ncnc(C3CCN(C(=O)c4ccc(COCC(F)(F)F)cc4)CC3)c2cc1OC` [Example 21, [4-(6,7-Dimethoxyquinazolin-4-yl)piperidin-1-yl]{4-[(2,2,2-trifluoroethoxy)methyl]phenyl}-methanone], which IC50 is on record?
Answer: Its IC50 is 2660 nM.

Question: How did the IC50 turn out when `COc1cc2ncnc(C3CCN(C(=O)c4ccc(OC(F)(F)F)c(F)c4)CC3)c2cc1OC` [Example 22, [4-(6,7-Dimethoxyquinazolin-4-yl)piperidin-1-yl][3-fluoro-4-(trifluoromethoxy)phenyl]methanone] was run?
Answer: Its IC50 is 88.5 nM.

Question: How did the IC50 turn out when `COCCOc1ccc(C(=O)N2CCC(c3ncnc4cc(OC)c(OC)cc34)CC2)cc1` [Example 24, [4-(6,7-Dimethoxyquinazolin-4-yl)piperidin-1-yl][4-(2-methoxyethoxy)phenyl]-methanone] was run?
Answer: Its IC50 is 9660 nM.

Question: For `COc1cc2ncnc(C3CCN(C(=O)c4ccc(OC(C)(C)C)cc4)CC3)c2cc1OC` [Example 25, (4-Tert-butoxyphenyl)[4-(6,7-dimethoxyquinazolin-4-yl)piperidin-1-yl]methanone], which IC50 is on record?
Answer: Its IC50 is 1030 nM.

Question: Which IC50 does the source give for `C=CCOc1ccc(C(=O)N2CCC(c3ncnc4cc(OC)c(OC)cc34)CC2)cc1` [Example 27, [4-(6,7-Dimethoxyquinazolin-4-yl)piperidin-1-yl][4-(prop-2-en-1-yloxy)phenyl]-methanone] here?
Answer: Its IC50 is 401 nM.

Question: With `NC(=O)c1ccc2c(C3CCN(C(=O)c4ccc(OC(F)(F)F)cc4)CC3)ncnc2c1` [Example 33, 4-{1-[4-(Trifluoromethoxy)benzoyl]piperidin-4-yl}quinazoline-7-carboxamide] as the compound, how does the IC50 read?
Answer: The IC50 was 253 nM.

Question: Which IC50 does the source give for `N#Cc1ccc2c(C3CCN(C(=O)c4ccc(OC(F)(F)F)cc4)CC3)ncnc2c1` [Example 34, 4-{1-[4-(Trifluoromethoxy)benzoyl]piperidin-4-yl}quinazoline-7-carbonitrile] here?
Answer: Its IC50 is 506 nM.

Question: How did the IC50 turn out when `O=C(c1ccc(OC(F)(F)F)cc1)N1CCC(c2ncnc3cc(O)ccc23)CC1` [Example 36, [4-(7-Hydroxyquinazolin-4-yl)piperidin-1-yl][4-(trifluoromethoxy)phenyl]-methanone] was run?
Answer: Its IC50 is 192 nM.

Question: With `Nc1ccc2c(C3CCN(C(=O)c4ccc(OC(F)(F)F)cc4)CC3)ncnc2c1` [Example 37, [4-(7-Aminoquinazolin-4-yl)piperidin-1-yl][4-(trifluoromethoxy)phenyl]-methanone] as the compound, how does the IC50 read?
Answer: Its IC50 is 867 nM.

Question: `CC(=O)Nc1ccc2c(C3CCN(C(=O)c4ccc(OC(F)(F)F)cc4)CC3)ncnc2c1` [Example 38, N-(4-{1-[4-(Trifluoromethoxy)benzoyl]piperidin-4-yl}quinazolin-7-yl)acetamide] was tested. Which IC50 did it give?
Answer: The IC50 was 1270 nM.

Question: How did the IC50 turn out when `CS(=O)(=O)Nc1ccc2c(C3CCN(C(=O)c4ccc(OC(F)(F)F)cc4)CC3)ncnc2c1` [Example 39, N-(4-{1-[4-(Trifluoromethoxy)benzoyl]piperidin-4-yl}quinazolin-7-yl)methane-sulfonamide] was run?
Answer: The IC50 was 351 nM.

Question: With `O=C(c1ccc(OC(F)(F)F)cc1)N1CCC(c2ncnc3cc(Br)ccc23)CC1` [Example 40, [4-(7-Bromoquinazoline-4-yl)piperidin-1-yl][4-(trifluoromethoxy)phenyl]-methanone] as the compound, how does the IC50 read?
Answer: The IC50 was 224 nM.

Question: With `CN(C)C(=O)c1ccc2c(C3CCN(C(=O)c4ccc(OC(F)(F)F)cc4)CC3)ncnc2c1` [Example 42, N,N-Dimethyl-4-{1-[4-(trifluoromethoxy)benzoyl]piperidin-4-yl}quinazoline-7-carboxamide] as the compound, how does the IC50 read?
Answer: The IC50 was 980 nM.

Question: How did the IC50 turn out when `O=C(c1ccc2c(C3CCN(C(=O)c4ccc(OC(F)(F)F)cc4)CC3)ncnc2c1)N1CCCC1` [Example 43, Pyrrolidin-1-yl(4-{1-[4-(trifluoromethoxy)benzoyl]piperidin-4-yl}quinazolin-7-yl)methanone] was run?
Answer: The IC50 was 1590 nM.

Question: For `O=C(c1ccc2c(C3CCN(C(=O)c4ccc(OC(F)(F)F)cc4)CC3)ncnc2c1)N1CCOCC1` [Example 44, Morpholin-4-yl(4-{1-[4-(trifluoromethoxy)benzoyl]piperidin-4-yl}quinazolin-7-yl)methanone], which IC50 is on record?
Answer: Its IC50 is 2240 nM.

Question: How did the IC50 turn out when `O=C(Nc1ccccc1)c1ccc2c(C3CCN(C(=O)c4ccc(OC(F)(F)F)cc4)CC3)ncnc2c1` [Example 45, N-Phenyl-4-{1-[4-(trifluoromethoxy)benzoyl]piperidin-4-yl}quinazoline-7-carboxamide] was run?
Answer: The IC50 was 3260 nM.

Question: How did the IC50 turn out when `CC(C)COc1ccc2c(C3CCN(C(=O)c4ccc(OC(F)(F)F)cc4)CC3)ncnc2c1` [Example 46, {4-[7-(2-Methylpropoxy)quinazolin-4-yl]piperidin-1-yl}[4-(trifluoromethoxy)-phenyl]methanone] was run?
Answer: The IC50 was 293 nM.

Question: `O=C(c1ccc(OC(F)(F)F)cc1)N1CCC(c2ncnc3cc(OCC4COC4)ccc23)CC1` [Example 48, {4-[7-(Oxetan-3-ylmethoxy)quinazolin-4-yl]piperidin-1-yl}[4-(trifluoromethoxy)-phenyl]methanone] was tested. Which IC50 did it give?
Answer: Its IC50 is 270 nM.

Question: Which IC50 does the source give for `O=C(c1ccc(OC(F)(F)F)cc1)N1CCC(c2ncnc3cc(N4CCCCC4=O)ccc23)CC1` [Example 55, 1-(4-{1-[4-(Trifluoromethoxy)benzoyl]piperidin-4-yl}quinazolin-7-yl)piperidin-2-one] here?
Answer: The IC50 was 1300 nM.

Question: Which IC50 does the source give for `CN(C)CCOc1ccc2c(C3CCN(C(=O)c4ccc(OC(F)(F)F)cc4)CC3)ncnc2c1` [Example 56, Formic Acid—(4-{7-[2-(dimethylamino)ethoxy]quinazolin-4-yl}piperidin-1-yl)[4-(trifluoromethoxy)phenyl]methanone (1:1)] here?
Answer: The IC50 was 198 nM.

Question: With `O=C(c1ccc(OC(F)(F)F)cc1)N1CCC(c2ncnc3ccccc23)CC1` [Example 58, [4-(Quinazolin-4-yl)piperidin-1-yl][4-(trifluoromethoxy)phenyl]methanone] as the compound, how does the IC50 read?
Answer: Its IC50 is 1680 nM.

Question: Which IC50 does the source give for `COc1ccc2c(C3CCN(C(=O)c4ccc(OC(F)(F)F)cc4C)CC3)ncnc2c1` [Example 61, [4-(7-Methoxyquinazolin-4-yl)piperidin-1-yl][2-methyl-4-(trifluoromethoxy)-phenyl]methanone] here?
Answer: The IC50 was 504 nM.

Question: How did the IC50 turn out when `COc1ccc2c(C3CCN(C(=O)c4ccc(OC(F)(F)F)c(C)c4)CC3)ncnc2c1` [Example 62, [4-(7-Methoxyquinazolin-4-yl)piperidin-1-yl][3-methyl-4-(trifluoromethoxy)-phenyl]methanone] was run?
Answer: Its IC50 is 274 nM.

Question: With `CC(C)(O)COc1ccc2c(C3CCN(C(=O)c4ccc(OC(F)(F)F)cc4)CC3)ncnc2c1` [Example 63, {4-[7-(2-Hydroxy-2-methylpropoxy)quinazolin-4-yl]piperidin-1-yl}[4-(trifluoro-methoxy)phenyl]-methanone] as the compound, how does the IC50 read?
Answer: Its IC50 is 274 nM.
